{
  "source": "patent US20150140109A1",
  "about": "“DOCETAXEL-BASED PROLONGED-RELEASE CANCER TREATMENT DRUG” (OY FILANA LTD, priority 2012, published 2015)",
  "test_system": "acinic cell carcinoma of the glandula mammaria of the NZB mouse Ca 755",
  "experiment": "Antitumor activity in mice inoculated with Ca755 mammary adenocarcinoma (tumor growth kinetics, lifetime)",
  "type": "in vivo, C57B1/6 female mice",
  "procedure": "To investigate the antitumor activity of a new dosage form of docetaxel in the composition with PLGA 50/50 the acinic cell carcinoma of the glandula mammaria of the NZB mouse Ca 755 was chosen. As the comparison object free docetaxel substance was used. The experiments were carried out on C57B1/6 female mice with the body weight of 18-20 g.\nThe anti-tumor activity of the preparations under research was estimated on the basis of the comparative analysis of tumor growth kinetics and comparing the lifetime in test groups and control groups of animals.\nThe introduction of both the docetaxel-based prolonged-release drug and the free docetaxel was started 48 hours after tumor inoculation.",
  "data": [
    {"smiles": "CC(=O)O[C@@]12CO[C@@H]1C[C@H](O)[C@@]1(C)C(=O)[C@H](O)C3=C(C)[C@@H](OC(=O)[C@H](O)[C@@H](NC(=O)OC(C)(C)C)c4ccccc4)C[C@@](O)([C@@H](OC(=O)c4ccccc4)[C@H]21)C3(C)C", "note": "[docetaxel substance, docetaxel]", "values": [
      {"measurement": "period for which tumor growth inhibition above 50% is retained", "setting": "even for the dose of 20 mg/kg", "value": "≤ 17", "unit": "days"},
      {"measurement": "inhibiting effect upon the tumor growth", "setting": "introduction started 48 hours after tumor inoculation", "value": "strong inhibiting effect"}
    ]}
  ]
}
